In assay [1] the target is Tyrosine-protein kinase ABL1 [T315I] (Homo sapiens, UniProt P00519, T315I). The experiment in a line: In Vitro Kinase Assay.
Assay [2] has as its target Tyrosine-protein kinase ABL1 (Homo sapiens, UniProt P00519). The experiment in a line: In Vitro Kinase Assay.
Assay [3] addresses Proto-oncogene tyrosine-protein kinase Src (Homo sapiens, UniProt P12931). In words: In vitro kinase assay using Abl, Abl T315I or Src kinase.

This passage reports IC50 results from BindingDB's records for doi:10.1111/j.1747-0285.2009.00905.x (Ariad Pharmaceuticals, 2010).

Proto-oncogene tyrosine-protein kinase Src, sequence (P12931 whole entry, looked up): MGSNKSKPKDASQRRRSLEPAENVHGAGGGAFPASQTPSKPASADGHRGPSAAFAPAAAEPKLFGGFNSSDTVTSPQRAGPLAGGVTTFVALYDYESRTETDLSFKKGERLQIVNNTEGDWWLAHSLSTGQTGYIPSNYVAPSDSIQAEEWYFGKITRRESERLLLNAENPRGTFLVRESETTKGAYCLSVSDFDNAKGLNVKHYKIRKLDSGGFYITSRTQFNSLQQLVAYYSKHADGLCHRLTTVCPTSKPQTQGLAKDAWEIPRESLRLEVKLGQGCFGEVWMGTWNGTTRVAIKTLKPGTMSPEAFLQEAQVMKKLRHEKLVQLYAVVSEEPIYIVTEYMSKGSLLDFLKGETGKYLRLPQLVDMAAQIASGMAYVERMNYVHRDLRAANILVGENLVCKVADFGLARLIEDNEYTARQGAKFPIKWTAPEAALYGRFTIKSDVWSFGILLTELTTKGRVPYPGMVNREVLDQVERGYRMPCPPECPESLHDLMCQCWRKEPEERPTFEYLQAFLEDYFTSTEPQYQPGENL

For `Cc1ccc2[nH]ncc2c1/C=C/n1cnc2c(Nc3ccc(P(C)(C)=O)cc3)ncnc21`, the concentration for half-maximal inhibition (IC50) (usually the concentration that inhibits the measured activity by half) in assay [1] is more than 10000 nM; in assay [2], less than 0.5 nM; in assay [3], less than 0.5 nM.

On to `Cc1cccc(C)c1/C=C/n1cnc2c(Nc3ccc(P(C)(C)=O)cc3)ncnc21` [AP24149], for which the results for the IC50 in assay [1] and in assay [3] were 8900 nM and 9.1 nM, respectively.
